Publication PMC6628435, “Chemical Synthesis, Proper Folding, Nav Channel Selectivity Profile and Analgesic Properties of the Spider Peptide Phlotoxin 1” (Toxins, 2019)
Bridge positions count the residues as written; N and C are the ends. Peptide text beside a SMILES is read from it.

Assays:
Type in all cases: cell-based
human Nav1.7 = target: T1, human Nav1.7 (Homo sapiens, UniProt Q15858); test: Automated patch-clamp (Nanion SyncroPatch 384PE) on CHO cells expressing human Nav1.7; details: for time constant of inhibition: mono-exponential fit
T1 construct: expressed in transfected cells
T1 sequence (Q15858 whole entry): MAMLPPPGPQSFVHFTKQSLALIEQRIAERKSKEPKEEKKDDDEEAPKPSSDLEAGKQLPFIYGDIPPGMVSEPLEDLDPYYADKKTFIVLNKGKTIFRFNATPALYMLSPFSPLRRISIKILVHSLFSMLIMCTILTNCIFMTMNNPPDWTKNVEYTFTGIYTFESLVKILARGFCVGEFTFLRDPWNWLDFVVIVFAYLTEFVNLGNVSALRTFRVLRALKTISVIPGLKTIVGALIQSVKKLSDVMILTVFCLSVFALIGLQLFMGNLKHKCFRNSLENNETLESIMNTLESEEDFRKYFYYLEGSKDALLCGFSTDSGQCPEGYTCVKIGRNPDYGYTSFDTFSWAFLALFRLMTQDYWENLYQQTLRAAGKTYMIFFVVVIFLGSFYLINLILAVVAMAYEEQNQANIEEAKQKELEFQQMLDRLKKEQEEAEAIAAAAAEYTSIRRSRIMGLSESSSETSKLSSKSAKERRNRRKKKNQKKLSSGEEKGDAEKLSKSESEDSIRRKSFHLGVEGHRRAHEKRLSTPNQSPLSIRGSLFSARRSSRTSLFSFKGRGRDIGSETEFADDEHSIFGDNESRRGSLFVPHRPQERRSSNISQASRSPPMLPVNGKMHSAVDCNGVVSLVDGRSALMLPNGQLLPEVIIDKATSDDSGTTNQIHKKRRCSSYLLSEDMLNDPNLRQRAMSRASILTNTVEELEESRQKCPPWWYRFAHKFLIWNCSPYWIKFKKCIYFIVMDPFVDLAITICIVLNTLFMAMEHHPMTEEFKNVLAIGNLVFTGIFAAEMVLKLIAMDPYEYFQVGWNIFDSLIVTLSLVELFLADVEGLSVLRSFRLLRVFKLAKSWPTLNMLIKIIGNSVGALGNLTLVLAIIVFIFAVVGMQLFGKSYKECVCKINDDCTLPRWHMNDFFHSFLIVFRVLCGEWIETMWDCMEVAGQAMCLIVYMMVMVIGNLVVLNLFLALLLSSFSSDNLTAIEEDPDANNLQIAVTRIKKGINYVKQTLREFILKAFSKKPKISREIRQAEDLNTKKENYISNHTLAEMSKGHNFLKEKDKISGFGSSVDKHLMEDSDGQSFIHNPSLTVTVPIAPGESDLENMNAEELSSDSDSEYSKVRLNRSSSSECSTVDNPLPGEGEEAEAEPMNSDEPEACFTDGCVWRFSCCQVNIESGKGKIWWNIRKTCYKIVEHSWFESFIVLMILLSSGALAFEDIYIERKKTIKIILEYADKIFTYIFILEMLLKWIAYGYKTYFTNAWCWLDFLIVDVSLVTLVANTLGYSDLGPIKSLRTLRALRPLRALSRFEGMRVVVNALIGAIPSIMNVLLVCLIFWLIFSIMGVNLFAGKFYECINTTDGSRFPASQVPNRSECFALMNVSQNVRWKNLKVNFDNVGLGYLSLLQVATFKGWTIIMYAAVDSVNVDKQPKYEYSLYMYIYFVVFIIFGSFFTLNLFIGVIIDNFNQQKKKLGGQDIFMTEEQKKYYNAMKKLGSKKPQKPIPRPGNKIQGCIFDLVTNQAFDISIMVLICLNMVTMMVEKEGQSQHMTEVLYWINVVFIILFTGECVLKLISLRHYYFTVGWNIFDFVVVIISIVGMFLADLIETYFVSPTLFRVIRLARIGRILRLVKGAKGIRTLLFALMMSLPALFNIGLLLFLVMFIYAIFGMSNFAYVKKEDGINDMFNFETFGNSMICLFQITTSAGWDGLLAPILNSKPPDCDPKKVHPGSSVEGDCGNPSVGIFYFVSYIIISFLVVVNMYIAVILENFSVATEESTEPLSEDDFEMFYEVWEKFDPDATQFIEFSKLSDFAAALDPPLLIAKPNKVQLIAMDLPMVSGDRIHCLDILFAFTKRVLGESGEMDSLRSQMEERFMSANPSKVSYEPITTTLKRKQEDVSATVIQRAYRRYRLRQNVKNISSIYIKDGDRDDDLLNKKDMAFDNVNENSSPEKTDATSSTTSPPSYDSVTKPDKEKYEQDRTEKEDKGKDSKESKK
Description: We used a CHO mammalian cell line expressing the human Nav1.7 instead of Xenopus oocytes for the pharmacological evaluation. […] 100-ms pulses from −100 mV to −10 mV were applied at a frequency of 0.2 Hz and various concentrations of PhlTx1 were applied to the cells. […] Using a manual patch clamp, which is better suited to investigate current recovery from block than an automated patch clamp that requires several washing steps, we investigated the reversibility properties of a PhlTx1 block.
CHO cells stably expressing the human Nav1.7 cells were cultured in Dulbecco’s Modified Eagle’s Medium (DMEM) supplemented with 10% fetal calf serum, 1 mM pyruvic acid, 4 mM glutamine, 10 IU/mL penicillin and 10 μg/mL streptomycin (Gibco, Grand Island, NY, USA), and incubated at 37 °C in a 5% CO2 atmosphere. For automated patch-clamp recordings, cells were detached with trypsin and floating single cells were diluted (~300,000 cells/mL) in medium contained (in mM): 4 KCl, 140 NaCl, 5 Glucose, 10 HEPES (pH 7.4, osmolarity 290 mOsm).
Chips with single-hole and high-resistance (~6–7 MΩ) were used for CHO cell recordings. Voltage pulses and whole-cell recordings were achieved using the PatchControl384 v1.5.2 software (Nanion, Munich, Germany) and the Biomek v1.0 interface (Beckman Coulter). Prior recordings, dissociated cells were shaken at 60 RPM in a cell hotel reservoir at 10 °C. After cell catching, sealing, whole-cell formation, liquid application, recording, and data acquisition were all performed sequentially and automatically. […] Whole-cell experiments were done at −100 mV holding potential and at room temperature (18–22 °C), while currents triggered at −10 mV test potential were sampled at 20 kHz. Stimulation frequency was set at 0.2 Hz. Toxins were prepared at various concentrations in the extracellular solution, itself supplemented with 0.3% BSA. […] Compound solutions were diluted 3 times in the patch-clamp recording well by adding 30 μL to 60 μL external solution to reach the final reported concentration and the test volume of 90 μL. Percentages of current inhibitions were measured at the end of a 12- to 15-min application time (12-min for fast blocking toxins; 15-min for slow blocking ones). A single concentration of peptide was tested on each cell for building the full-inhibition curves.

Nav1.7/β1 = target: T2, Nav1.7/β1 (Rattus norvegicus, UniProt O08562); test: Two-electrode voltage-clamp on Xenopus laevis oocytes expressing Nav1.7/β1
T2 construct: expressed in transfected cells; host or cells: Xenopus laevis oocytes injected with cRNA
T2 sequence (O08562 whole entry): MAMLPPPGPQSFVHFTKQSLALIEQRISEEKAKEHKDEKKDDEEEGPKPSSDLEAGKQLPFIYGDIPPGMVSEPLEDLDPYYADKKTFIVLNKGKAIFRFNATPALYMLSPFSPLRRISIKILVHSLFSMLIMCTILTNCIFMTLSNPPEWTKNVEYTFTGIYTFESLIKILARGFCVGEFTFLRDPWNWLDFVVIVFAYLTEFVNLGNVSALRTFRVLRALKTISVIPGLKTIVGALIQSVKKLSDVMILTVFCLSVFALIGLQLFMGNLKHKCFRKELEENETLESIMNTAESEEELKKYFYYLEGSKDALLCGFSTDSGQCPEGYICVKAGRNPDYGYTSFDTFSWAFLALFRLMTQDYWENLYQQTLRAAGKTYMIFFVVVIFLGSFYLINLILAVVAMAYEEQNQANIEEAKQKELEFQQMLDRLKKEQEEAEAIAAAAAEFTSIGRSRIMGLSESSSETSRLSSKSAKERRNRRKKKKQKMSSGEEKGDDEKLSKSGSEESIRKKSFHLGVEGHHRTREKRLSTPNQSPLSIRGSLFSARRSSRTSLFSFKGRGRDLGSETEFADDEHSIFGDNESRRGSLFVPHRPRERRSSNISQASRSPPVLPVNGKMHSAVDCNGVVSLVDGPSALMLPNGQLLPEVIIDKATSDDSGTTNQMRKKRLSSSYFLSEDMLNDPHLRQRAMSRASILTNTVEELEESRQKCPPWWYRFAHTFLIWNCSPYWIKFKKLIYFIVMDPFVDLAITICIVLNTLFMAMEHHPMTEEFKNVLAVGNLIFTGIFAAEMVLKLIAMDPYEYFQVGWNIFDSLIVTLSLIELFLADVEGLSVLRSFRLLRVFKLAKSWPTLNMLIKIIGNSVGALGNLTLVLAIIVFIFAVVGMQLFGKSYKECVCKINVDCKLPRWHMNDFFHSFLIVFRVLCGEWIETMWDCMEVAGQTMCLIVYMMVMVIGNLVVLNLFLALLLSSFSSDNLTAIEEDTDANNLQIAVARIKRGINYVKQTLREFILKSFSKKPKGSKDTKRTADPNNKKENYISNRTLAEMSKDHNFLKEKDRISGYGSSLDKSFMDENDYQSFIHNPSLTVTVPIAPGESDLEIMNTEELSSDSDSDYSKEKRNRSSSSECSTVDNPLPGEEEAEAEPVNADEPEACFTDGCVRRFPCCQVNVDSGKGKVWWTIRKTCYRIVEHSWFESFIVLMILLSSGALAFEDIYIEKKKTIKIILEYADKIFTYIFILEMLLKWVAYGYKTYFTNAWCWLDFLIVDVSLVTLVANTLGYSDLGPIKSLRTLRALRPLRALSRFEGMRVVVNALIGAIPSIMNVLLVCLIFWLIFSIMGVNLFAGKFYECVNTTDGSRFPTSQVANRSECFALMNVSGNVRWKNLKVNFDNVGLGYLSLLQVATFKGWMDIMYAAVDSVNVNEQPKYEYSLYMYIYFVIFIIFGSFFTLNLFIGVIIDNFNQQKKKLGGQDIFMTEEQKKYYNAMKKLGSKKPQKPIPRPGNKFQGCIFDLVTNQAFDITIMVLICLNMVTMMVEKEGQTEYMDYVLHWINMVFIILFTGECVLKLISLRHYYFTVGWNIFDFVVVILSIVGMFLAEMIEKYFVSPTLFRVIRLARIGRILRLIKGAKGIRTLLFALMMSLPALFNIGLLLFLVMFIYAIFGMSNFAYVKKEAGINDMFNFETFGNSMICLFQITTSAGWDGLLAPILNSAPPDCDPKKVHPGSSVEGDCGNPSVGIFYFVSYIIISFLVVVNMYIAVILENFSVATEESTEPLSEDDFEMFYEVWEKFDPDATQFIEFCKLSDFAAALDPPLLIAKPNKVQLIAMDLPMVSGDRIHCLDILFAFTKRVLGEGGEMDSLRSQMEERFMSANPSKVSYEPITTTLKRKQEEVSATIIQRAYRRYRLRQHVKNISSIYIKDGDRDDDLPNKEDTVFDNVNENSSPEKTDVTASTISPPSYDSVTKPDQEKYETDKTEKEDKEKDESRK
T2 sequence (Q00954 19-218 partner): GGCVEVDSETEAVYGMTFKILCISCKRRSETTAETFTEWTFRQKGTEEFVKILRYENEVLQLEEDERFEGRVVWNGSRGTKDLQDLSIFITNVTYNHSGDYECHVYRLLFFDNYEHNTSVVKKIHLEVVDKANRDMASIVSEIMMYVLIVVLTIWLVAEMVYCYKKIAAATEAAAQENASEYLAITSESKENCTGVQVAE

hNav1.4 = target: T3, hNav1.4 (Homo sapiens, UniProt P35499); test: Automated patch-clamp dose-response on hNav1.4 expressed in CHO cells; details: 4 to 13 cells per concentration, read-out: calculated IC50
T3 construct: expressed in transfected cells; host or cells: CHO cells

CC(C)C[C@@H]1NC(=O)[C@@H](NC(=O)[C@H](C)N)CSSC[C@@H]2NC(=O)[C@@H]3CSSC[C@@H](C(=O)N[C@@H](CCCNC(=N)N)C(=O)N[C@@H](Cc4ccc(O)cc4)C(=O)N[C@@H](CCCCN)C(=O)N[C@@H](CC(C)C)C(=O)N[C@@H](Cc4ccccc4)C(=O)O)NC(=O)[C@H](Cc4c[nH]c5ccccc45)NC(=O)[C@@H]4CCCN4C(=O)[C@H](Cc4ccc(O)cc4)NC(=O)[C@H](CCCCN)NC(=O)[C@H](Cc4c[nH]c5ccccc45)NC(=O)[C@H](CCC(=O)O)NC(=O)[C@H](CSSC[C@H](NC(=O)[C@H](CO)NC(=O)[C@H](CC(=O)O)NC(=O)[C@H](Cc4c[nH]c5ccccc45)NC(=O)[C@H](CCC(N)=O)NC(=O)CNC1=O)C(=O)N[C@@H](CC(=O)O)C(=O)N1CCC[C@H]1C(=O)N[C@@H](CCCCN)C(=O)N[C@@H](C)C(=O)N[C@@H](CO)C(=O)N[C@@H](CCCCN)C(=O)N3)NC(=O)[C@H](C)NC(=O)[C@H](Cc1ccc(O)cc1)NC(=O)[C@H](CC(N)=O)NC(=O)[C@@H]1CCCN1C2=O [PhlTx1, Phlotoxin-1] (H-ACLGQWDSCDPKASKCCPNYACEWKYPWCRYKLF-OH; disulfide 2-17, 9-22, 16-29; N-terminus and C-terminus assumed)
IC50 (human Nav1.7): 39 nM | time constant of inhibition (human Nav1.7; 33 nM, n = 4): 253 s | block of Nav1.7 inward current (human Nav1.7; 100 nM toxin, end of application (about 12-13 min), CHO hNav1.7): above 50% | time constant of inhibition (τ) (human Nav1.7; 100 nM, mono-exponential fit (PhlTx1 n = 8)): 159 s | time constant of inhibition (human Nav1.7; 333 nM, n = 6): 97 s | c value of mono-exponential decay fit (block not complete) (human Nav1.7; 1 μM PhlTx1, normalized current): 0.09 | time constant of inhibition (human Nav1.7; 1 μM, n = 8): 36 s | Hill value (human Nav1.7; same dose-response fit as IC50, CHO hNav1.7 automated patch-clamp): 1.53 | highest achievable inhibition (human Nav1.7; two most efficient concentrations (333 nM and 1 μM)): 85%–92% | inhibition at 1 µM (Nav1.7/β1; 1 µM, holding −90 mV, oocytes TEVC, clone rPN1, read-out: inhibition of inward currents): 90 ± 7% | IC50 (Nav1.7/β1; Xenopus laevis oocytes, stimulus frequency 0.3 Hz, Hill equation fit, n = 4, 0.1% BSA): 260 ± 46 nM | Hill coefficient (Nav1.7/β1; Xenopus laevis oocytes, stimulus frequency 0.3 Hz, n = 4): 1.3 | IC50 (hNav1.4): > 3000 nM
